Data reported in patent US8278455B2, “5- or 6-substituted benzimidazole derivatives as inhibitors of respiratory syncytial virus replication” (Janssen Pharmaceutica N.V., priority 2003, dated 2012).
One block for each compound: values may come before it.

System: Respiratory Syncytial Virus
Experiment: In vitro screening for activity against Respiratory Syncytial Virus (MTT tetrazolium colorimetric assay, HeLa cells)
Format: cell-based
Settings: protection against RSV cytopathology in HeLa cells, 7 days after infection
Source text: The percent protection against cytopathology caused by viruses (antiviral activity or EC50) achieved by tested compounds and their cytotoxicity (CC50) are both calculated from dose-response curves. The selectivity of the antiviral effect is represented by the selectivity index (SI), calculated by dividing the CC50 (cytotoxic dose for 50% of the cells) by the EC50 (antiviral activity for 50% of the cells). The tables in the above experimental part list the category to which each of the prepared compounds belong. Compounds belonging to activity category “A” have an pEC50 (−log of EC50 when expressed in molar units) equal to or more than 7. Compounds belonging to activity category “B” have a pEC50 value between 6 and 7.
Automated tetrazolium-based […] assays were used for determination of EC50 and CC50 of test compounds. Flat-bottom, 96-well plastic microtiter trays were filled with 180 μl of Eagle's Basal Medium, supplemented with 5% FCS (0% for FLU) and 20 mM Hepes buffer. Subsequently, stock solutions (7.8× final test concentration) of compounds were added in 45 μl volumes to a series of triplicate wells so as to allow simultaneous evaluation of their effects on virus- and mock-infected cells. Five five-fold dilutions were made directly in the microtiter trays using a robot system. Untreated virus controls, and HeLa cell controls were included in each test. Approximately 100 TCID50 of Respiratory Syncytial Virus was added to two of the three rows in a volume of 50 μl. The same volume of medium was added to the third row to measure the cytotoxicity of the compounds at the same concentrations as those used to measure the antiviral activity. After two hours of incubation, a suspension (4×10^5 cells/ml) of HeLa cells was added to all wells in a volume of 50 μl. The cultures were incubated at 37° C. in a 5% CO2 atmosphere. Seven days after infection the cytotoxicity and the antiviral activity was examined spectrophotometrically. To each well of the microtiter tray, 25 μl of a solution of MTT (3-(4,5-dimethylthiazol-2-yl)-2,5-diphenyltetrazolium bromide) was added. The trays were further incubated at 37° C. for 2 hours, after which the medium was removed from each cup. Solubilization of the formazan crystals was achieved by adding 100 μl 2-propanol. Complete dissolution of the formazan crystals were obtained after the trays have been placed on a plate shaker for 10 min. Finally, the absorbances were read in an eight-channel computer-controlled photometer (Multiskan MCC, Flow Laboratories) at two wavelengths (540 and 690 nm). The absorbance measured at 690 nm was automatically subtracted from the absorbance at 540 nm, so as to eliminate the effects of non-specific absorption.

[1] = pEC50 = −log of EC50 in molar units

SMILES: Cc1ccc(O)c(Cn2c(NC3CCN(C)CC3)nc3ccc(CN4CCOCC4)cc32)n1 [Compound 98]
Activity [1]: 6.5

SMILES: Cc1cccc(NCc2ccc3nc(NC4CCN(Cc5ccccc5)CC4)n(Cc4nc(C)ccc4O)c3c2)c1 [Compound 167]
Activity [1]: 6.8

SMILES: Cc1ccc(O)c(Cn2c(NC3CCN(C)CC3)nc3ccc(CNCCc4ccccc4)cc32)n1 [Compound 110]
Activity [1]: 5.8

SMILES: Cc1cc(C)cc(NCc2cc(C)c3nc(NC4CCN(CCO)CC4)n(Cc4nc(C)ccc4O)c3c2)c1 [Compound 172]
Activity [1]: 8.5

SMILES: Cc1cc(C)cc(NCc2ccc3c(c2)nc(NCCCN2CCCCC2)n3Cc2nc(C)ccc2O)c1 [Compound 176]
Activity [1]: 7.2

SMILES: Cc1ccc(O)c(Cn2c(NC3CCN(C)CC3)nc3ccc(CNc4ccc(S(N)(=O)=O)cc4)cc32)n1 [Compound 10]
Activity [1]: 8.3

SMILES: Cc1ccc(O)c(Cn2c(NC3CCN(C)CC3)nc3ccc(CNc4ccccc4F)cc32)n1 [Compound 23]
Activity [1]: 7.9

SMILES: Cc1ccc(O)c(Cn2c(NC3CCN(CCO)CC3)nc3ccc(CCC#N)cc32)n1 [Compound 161]
Activity [1]: 7.8

SMILES: Cc1ccc(O)c(Cn2c(NC3CCN(C)CC3)nc3ccc(CN4CCOC(CCO)C4)cc32)n1 (centres unmarked) [Compound 97]
Activity [1]: 6.6

SMILES: Cc1ccc(O)c(Cn2c(NC3CCN(C)CC3)nc3ccc(CNc4ccccc4CO)cc32)n1 [Compound 7]
Activity [1]: 8.4

SMILES: CCc1cc(Br)ccc1NCc1ccc2nc(NC3CCN(C)CC3)n(Cc3nc(C)ccc3O)c2c1 [Compound 74]
Activity [1]: 7.1

SMILES: CCOC(=O)c1ccc2c(c1)nc(NC1CCNCC1)n2Cc1nc(C)ccc1O [Compound 139]
Activity [1]: 5.1

SMILES: Cc1ccc(O)c(Cn2c(NC3CCN(C)CC3)nc3ccc(CNc4ccc(F)cc4)cc32)n1 [Compound 26]
Activity [1]: 7.9

SMILES: CCOC(=O)c1ccc(NCc2ccc3nc(NC4CCN(C)CC4)n(Cc4nc(C)ccc4O)c3c2)cc1 [Compound 54]
Activity [1]: 7.4

SMILES: Cc1cc(C)cc(NCc2ccc3nc(NCCc4ccccc4)n(Cc4nc(C)ccc4O)c3c2)c1 [Compound 187]
Activity [1]: <4

SMILES: Cc1cc(C)cc(NCc2ccc3nc(NC4CCN(Cc5ccccc5)CC4)n(Cc4nc(C)ccc4O)c3c2)c1 [Compound 164]
Activity [1]: 7.2

SMILES: Cc1cc(C)cc(NCc2ccc3nc(NC4CCN(CCO)CC4)n(Cc4nc(C)ccc4O)c3c2)c1 [Compound 149]
Activity [1]: 8.8

SMILES: Cc1ccc(O)c(Cn2c(NC3CCN(C)CC3)nc3cc(NC(=O)c4cccnc4)ccc32)n1 [Compound 55]
Activity [1]: 7.3

SMILES: Cc1ccc(O)c(Cn2c(NC3CCN(C)CC3)nc3ccc(CNc4ccccc4C(C)C)cc32)n1 [Compound 21]
Activity [1]: 7.9

SMILES: Cc1cc(C)cc(N(CCO)Cc2ccc3nc(NC4CCN(C)CC4)n(Cc4nc(C)ccc4O)c3c2)c1 [Compound 1]
Activity [1]: 9.4

SMILES: Cc1ccc(O)c(Cn2c(NC3CCN(C)CC3)nc3ccc(CNc4ccc(C)c(F)c4)cc32)n1 [Compound 60]
Activity [1]: 7.3

SMILES: COc1ccc(CCNc2nc3cc(CNc4cc(C)cc(C)c4)ccc3n2Cc2nc(C)ccc2O)cc1 [Compound 191]
Activity [1]: <4

SMILES: Cc1ccc(O)c(Cn2c(NC3CCN(CCO)CC3)nc3ccc(CNc4cccc(O)c4)cc32)n1 [Compound 159]
Activity [1]: 7.9

SMILES: Cc1ccc(O)c(Cn2c(NC3CCN(C)CC3)nc3ccc(CNc4ccccc4Br)cc32)n1 [Compound 22]
Activity [1]: 7.9

SMILES: Cc1ccc(O)c(Cn2c(NC3CCN(C)CC3)nc3cc(/C=C/c4ccc(Cl)cc4)ccc32)n1 [Compound 127]
Activity [1]: <4

SMILES: Cc1ccc(O)c(Cn2c(NC3CCN(C)CC3)nc3cc(C(=O)NCc4ccco4)ccc32)n1 [Compound 118]
Activity [1]: 4.9

SMILES: Cc1ccc(O)c(Cn2c(NC3CCN(C)CC3)nc3ccc(CNc4cccc(Cl)c4)cc32)n1 [Compound 11]
Activity [1]: 8.2

SMILES: CCOC(=O)c1ccc2c(c1)nc(NC1CCN(Cc3ccccc3)CC1)n2Cc1nc(C)ccc1O [Compound 140]
Activity [1]: <4

SMILES: Cc1cccc(/C=C/c2ccc3c(c2)nc(NC2CCN(C)CC2)n3Cc2nc(C)ccc2O)c1 [Compound 104]
Activity [1]: 6.2

SMILES: Cc1ccc(O)c(Cn2c(NC3CCN(C)CC3)nc3cc(/C=C/c4ccccc4)ccc32)n1 [Compound 100]
Activity [1]: 6.4

SMILES: COc1ccc(CCNc2nc3cc(CO)ccc3n2Cc2nc(C)ccc2O)cc1 [Compound 189]
Activity [1]: <4

SMILES: Cc1ccc(O)c(Cn2c(NC3CCN(C)CC3)nc3ccc(CNc4ccc5c(c4)CCC5)cc32)n1 [Compound 45]
Activity [1]: 7.5

SMILES: Cc1ccc(O)c(Cn2c(NC3CCN(C)CC3)nc3ccc(C(=O)Nc4ccccc4)cc32)n1 [Compound 112]
Activity [1]: 5.5

SMILES: Cc1ccc(O)c(Cn2c(NC3CCN(C)CC3)nc3ccc(CNc4ccc(Cl)cc4Cl)cc32)n1 [Compound 70]
Activity [1]: 7.2

SMILES: Cc1ccc(O)c(Cn2c(NC3CCN(C)CC3)nc3ccc(CNc4ccc5c(c4)OCCO5)cc32)n1 [Compound 32]
Activity [1]: 7.8

SMILES: Cc1ccc(O)c(Cn2c(NC3CCN(C)CC3)nc3ccc(CN(CCN(C)C)Cc4ccccc4)cc32)n1.Cl [Compound 59]
Activity [1]: 7.3

SMILES: Cc1cccc(CCc2ccc3c(c2)nc(NC2CCN(CCN)CC2)n3Cc2nc(C)ccc2O)c1.Cl [Compound 158]
Activity [1]: 7.9

SMILES: Cc1ccc(O)c(Cn2c(NC3CCN(C)CC3)nc3ccc(CNc4ccc(F)c(F)c4)cc32)n1 [Compound 50]
Activity [1]: 7.4

SMILES: Cc1ccc(O)c(Cn2c(NC3CCN(C)CC3)nc3ccc(CNc4ccc(Br)cc4)cc32)n1 [Compound 38]
Activity [1]: 7.7

SMILES: Cc1ccc(O)c(Cn2c(NC3CCN(C)CC3)nc3ccc(CN(CCO)c4ccccc4)cc32)n1 [Compound 4]
Activity [1]: 8.5

SMILES: CCc1cccc(CC)c1NCc1ccc2nc(NC3CCN(C)CC3)n(Cc3nc(C)ccc3O)c2c1 [Compound 52]
Activity [1]: 7.4

SMILES: Cc1ccc(O)c(Cn2c(NC3CCN(C)CC3)nc3ccc(CNc4ccc(C(C)C)cc4)cc32)n1 [Compound 76]
Activity [1]: 7

SMILES: CCOC(=O)c1ccc2nc(NC3CCN(Cc4ccccc4)CC3)n(Cc3nc(C)ccc3O)c2c1 [Compound 142]
Activity (activity category): C (pEC50 value equal to or below 6)

SMILES: Cc1ccc(O)c(Cn2c(NC3CCN(C)CC3)nc3ccc(CNc4ccc(C)c(C)c4)cc32)n1 [Compound 41]
Activity [1]: 7.6

SMILES: CC(=O)Nc1ccc(NCc2ccc3nc(NC4CCN(C)CC4)n(Cc4nc(C)ccc4O)c3c2)cc1 [Compound 53]
Activity [1]: 7.4

SMILES: Cc1ccc(O)c(Cn2c(NC3CCN(C)CC3)nc3ccc(CNc4ccc(Br)c5ccccc45)cc32)n1 [Compound 94]
Activity [1]: 6.6

SMILES: Cc1cccc(NCc2ccc3nc(NC4CCN(CCCO)CC4)n(Cc4nc(C)ccc4O)c3c2)c1 [Compound 156]
Activity [1]: 8.4

SMILES: Cc1ccc(O)c(Cn2c(NC3CCN(C)CC3)nc3ccc(NC(=O)CCc4ccccc4)cc32)n1 [Compound 106]
Activity [1]: 6.1

SMILES: Cc1ccc(O)c(Cn2c(NC3CCN(C)CC3)nc3cc(/C=C/C#N)ccc32)n1 [Compound 115]
Activity [1]: 5.1

SMILES: Cc1ccc(O)c(Cn2c(NC3CCN(C)CC3)nc3ccc(CNc4ccc(Br)cc4F)cc32)n1 [Compound 48]
Activity [1]: 7.5

SMILES: Cc1ccc(O)c(Cn2c(NC3CCN(C)CC3)nc3ccc(CNc4cc(Cl)c(Cl)cc4Cl)cc32)n1 [Compound 77]
Activity [1]: 7

SMILES: Cc1ccc(O)c(Cn2c(NC3CCN(C)CC3)nc3ccc(CN(Cc4ccccc4)c4ccccc4)cc32)n1 [Compound 80]
Activity [1]: 6.9

SMILES: Cc1cc(C)cc(NCc2ccc3c(c2)nc(NCCc2ccccc2)n3Cc2nc(C)ccc2O)c1 [Compound 186]
Activity [1]: <4

SMILES: Cc1ccc(O)c(Cn2c(NC3CCN(C)CC3)nc3ccc(CNc4ccccc4C(N)=O)cc32)n1 [Compound 14]
Activity [1]: 8.1

SMILES: CCOC(=O)c1ccc(NCc2ccc3nc(NC4CCN(C)CC4)n(Cc4nc(C)ccc4O)c3c2)c(O)c1 [Compound 24]
Activity [1]: 7.9

SMILES: Cc1ccc(O)c(Cn2c(NC3CCN(C)CC3)nc3ccc(CN(CCC#N)CCC#N)cc32)n1 [Compound 137]
Activity [1]: <4

SMILES: Cc1cccc(NCc2ccc3c(c2)nc(NC2CCN(C)CC2)n3Cc2nc(C)ccc2O)c1 [Compound 130]
Activity [1]: 4.6

SMILES: Cc1ccc(O)c(Cn2c(NCCCN3CCN(C)CC3)nc3cc(CO)ccc32)n1 [Compound 183]
Activity [1]: 5

EC50 (human respiratory syncytial virus, 168 h, pEC50 = −log of EC50 in molar units): 126 nM
SMILES: Cc1cccc(C(=O)Nc2ccc3c(c2)nc(NC2CCN(C)CC2)n3Cc2nc(C)ccc2O)c1 [Compound 78, N-[1-(3-hydroxy-6-methyl-pyridin-2-ylmethyl)-2-(1-methyl-piperidin-4-ylamino)-1H-benzoimidazol-5-yl]-3-methyl-benzamide]
